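Values below derive from 48-hour exposures of cells grown in 96-well plates, with endpoints linearly interpolated between the two concentrations bracketing the appropriate inhibition level. Abbreviation: GI50, concentration required for 50% inhibition of growth. TGI is the concentration that stops growth completely.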
Assays:
Experiment in all cases: growth of human tumour cells (NCI), 48 h
CAKI-1 renal = system: CAKI-1 renal
IGROV1 ovarian = system: IGROV1 ovarian
NCI-H460 lung = system: NCI-H460 lung
OVCAR-3 ovarian = system: OVCAR-3 ovarian
SF-539 CNS = system: SF-539 CNS
SN12C renal = system: SN12C renal
TK-10 renal = system: TK-10 renal
UO-31 renal = system: UO-31 renal
DLD-1 colon = system: DLD-1 colon
DMS 114 small cell lung = system: DMS 114 small cell lung

Row | Structure (SMILES) | TGI (CAKI-1 renal) [µM] | TGI (IGROV1 ovarian) [µM] | TGI (NCI-H460 lung) [µM] | TGI (OVCAR-3 ovarian) [µM] | TGI (SF-539 CNS) [µM] | TGI (SN12C renal) [µM] | TGI (TK-10 renal) [µM] | TGI (UO-31 renal) [µM] | GI50 (CAKI-1 renal) [µM] | GI50 (IGROV1 ovarian) [µM] | GI50 (NCI-H460 lung) [µM] | GI50 (OVCAR-3 ovarian) [µM] | GI50 (SF-539 CNS) [µM] | GI50 (TK-10 renal) [µM] | GI50 (UO-31 renal) [µM] | TGI (DLD-1 colon) [µM] | GI50 (SN12C renal) [µM] | TGI (DMS 114 small cell lung) [µM] | GI50 (DLD-1 colon) [µM] | GI50 (DMS 114 small cell lung) [µM]
1 | O=C1c2ccccc2C(=O)c2c(NC(=O)c3ccc4c5c(ncnc35)-c3ccccc3C4=O)cccc21 | > 100 | > 100 | > 100 | > 100 | > 100 | > 100 | 47.6 | > 100 |  |  |  |  |  |  |  |  |  |  |  | 
2 | CC(=O)OCC(=O)C1(O)C(C)CC2C3C=C(C)C4=Cc5c(cnn5-c5ccccc5)CC4(C)C3C(O)CC21C (stereo not drawn) | 10.1 | 6.48 | 3.24 | 3.96 | 2.41 | 9.86 | 9.73 | 8.43 | 2.35 | 1.99 | 1.43 | 1.67 | 0.439 | 2.13 | 2.47 |  |  |  |  | 
3 | O=C1CCC(=O)C(C(=O)CCC(=O)Nc2cccc(Cl)c2)C1 (stereo not drawn) | > 100 | > 100 | > 100 | > 100 | > 100 | > 100 | > 100 | > 100 |  |  |  |  |  |  |  | > 100 |  |  |  | 
4 | CSc1ccc(C2=NN(C(=O)c3ccc(N)cc3)C(c3ccc(F)cc3)C2)cc1 (stereo not drawn) | 37.4 | 25.5 | 35.2 | 17.2 | 32.4 | 10.2 | 26.1 | 24 | 15.4 | 4.37 | 7.83 | 4.54 | 15.6 | 7.5 | 10.6 |  | 2.49 |  |  | 
5 | CC(C)NC(=O)O/N=C1\CCC2[C@@H]3CC=C4C[C@@H](OC(=O)NC(C)C)CC[C@]4(C)C3CC[C@]12C (stereo partly drawn) | 4.29 |  | 3.06 | 3.6 |  | 3.14 | 3.15 | 2.3 |  |  |  |  |  |  |  | > 25.3 |  | 1.98 |  | 
6 | CCOC(=O)CNC(=O)C(CSC(=O)N(C)O)NC(=O)CCC(N)C(=O)O (stereo not drawn) | > 2000 | > 2000 | > 2000 | > 2000 |  | > 2000 | > 2000 | > 2000 | > 2000 | > 2000 | > 2000 | > 2000 |  | > 2000 | > 2000 |  | > 2000 |  | > 2000 | > 2000
7 | O=P1(O)c2ccccc2CS(=O)(=O)Cc2ccccc21 | > 100 | > 100 | > 100 | > 100 | > 100 | > 100 | > 100 | > 100 |  |  |  |  |  |  |  |  |  |  |  | 
8 | COc1cc(C2C(C#N)=C(N)Oc3cc4c(cc32)OCO4)cc2c1OCO2 (stereo not drawn) | > 100 | > 100 | 26.2 | 0.35 |  | > 100 | > 79.8 | > 100 | 0.382 | 0.724 | 0.34 | 0.0928 | 0.279 | 2.36 | 0.653 |  | 0.599 |  |  | 
9 | Cc1ccc(-c2cc(/C=N/O)on2)cc1 | > 100 | > 100 | > 100 | > 100 | > 100 | > 100 | > 100 | > 100 | 43.9 | 63.8 | 63.6 | 58.2 | > 100 | 63.8 | 36.4 |  | > 100 |  |  | 
10 | CC(C)[O-].CC(C)[O-].[O-]c1cccc2cccnc12.[O-]c1cccc2cccnc12.[Ti+4] | > 100 | > 100 |  | > 100 | > 100 |  | > 100 | > 100 |  |  |  | 15.4 | 97 | 34.4 | > 100 |  |  |  | 4.97 | 
11 | OC(c1ccccc1)c1c(-c2ccccc2)oc(-c2ccccc2)c1C(O)c1ccccc1 (stereo not drawn) | 30.4 | 28.1 | 28.8 | 18.7 | 30.5 | 18.4 | 29 | 25 |  |  |  |  |  |  |  |  |  |  |  | 
12 | CNCCOc1nc2c3cnccc3cc(-c3cc(OC)c(OC)c(OC)c3)c2c2ccncc12 | 0.292 | 0.357 | 0.103 | 0.464 | 0.225 | 0.0872 | 0.366 | 0.156 | 0.039 | 0.0281 | < 0.01 | 0.0906 | 0.0438 | 0.0686 | 0.0302 |  | 0.0199 |  |  | 
13 | CCOC(=O)N1CCC(=O)C[C@@H]1C/C=C/P1(=O)O[C@H](c2ccccc2)C(C)N1C(C)C (stereo partly drawn) | > 100 | > 100 |  | > 100 | > 100 | > 100 | > 100 | > 100 |  |  |  |  |  |  |  |  |  | > 100 |  | 
14 | CCCCCCC1N=C(N)N=C(N)N1c1ccc(Cl)cc1 (stereo not drawn) | > 100 | 17.4 | 18.5 | 32.6 | 18 | 16.1 | > 100 | > 100 | > 100 | 3.53 | 4.69 | 12.2 | 4.16 | 31.4 | 57.1 |  | 3.76 |  |  | 
15 | C=C1CO[C@@H]2C[C@@H]1CC/C(C)=C/CC/C(C)=C/CC[C@@]2(C)O | 41.8 | 28.8 | > 68.3 | 51.6 | 43.6 | 43.7 | 36.2 | 36.5 | 20.3 | 3.96 | 24.1 | 24.1 | 23.4 | 18.4 | 17.1 |  | 20 |  |  | 
16 | c1cnc2c(c1)Nc1cnncc1S2 | > 100 | > 100 | > 100 | > 100 | > 100 | > 100 | > 100 | > 100 |  |  |  |  |  |  |  |  |  |  |  | 
17 | C[C@@H]1CN2[C@H]3[C@@H]1CC[C@]31CCC(=O)O[C@]1(C)[C@@H]1CC[C@H]3CCC=C3[C@@H]12 | > 70 | > 70 | > 70 | > 70 | > 70 | > 70 | > 70 | > 70 | > 70 | > 70 | > 70 | > 70 | > 70 | > 70 | 43.5 |  | > 70 |  |  | 
18 | NC(=O)NC(=O)C1CCCCC1C(=O)O (stereo not drawn) | > 100 | > 100 | > 100 | > 100 | > 100 | > 100 | > 100 | > 100 |  |  |  |  |  |  |  |  |  |  |  | 

Source: PubChem BioAssay (NCI)
